System: healthy subjects
Experiment: Phase 1 study: Social Cognition Panel (PET, RMET, SSR, SVO, TEQ)
Type: in vivo, human
Excerpt: In some embodiments, Social Cognition Panel scales are utilized to evaluate the safety and/or efficacy of psilocybin. The social cognition panel scales comprise the pictorial empathy test (PET), reading the mind in the eyes test (RMET), social value orientation (SVO) test, the Toronto Empathy Questionnaire (TEQ), and the scale of social responsibility (SSR).
In some embodiments, the Pictorial Empathy Test (PET) is utilized to evaluate the effect of psilocybin on affective empathy.
In some embodiments, Reading the Mind in the Eyes Test (RMET) is utilized to evaluate the safety and/or efficacy of psilocybin. The RMET has 36 items, in which subjects are presented with a photograph of the eyes region of the face and must choose 1 of 4 adjectives or phrases to describe the mental state of the person pictured. A definition handout is provided at the beginning of the task and a practice item precedes the first trial.
In some embodiments, the Social Value Orientation (SVO) test is utilized to evaluate the safety and/or efficacy of psilocybin. The SVO Slider Measure has 6 primary items with 9 secondary (and optional) items. All of the items have the same general form. Each item is a resource allocation choice over a well-defined continuum of joint payoffs.
In some embodiments, the Toronto Empathy Questionnaire (TEQ) is utilized to evaluate the safety and/or efficacy of psilocybin. The TEQ represents empathy as a primarily emotional process. […] The TEQ is a brief, reliable and valid instrument for the assessment of empathy. In some embodiments, after treating according to the methods of the disclosure, a subject's TEQ score increases by about 5%, about 10%, about 15%, about 20%, about 25%, about 30%, about 35%, about 40%, about 45%, about 50%, about 55%, about 60%, about 65%, about 70%, about 75%, about 80%, about 85%, about 90%, about 95%, or about 100%, about 110%, about 120%, about 130%, about 140%, about 150%, about 160%, about 170%, about 180%, about 190%, about 200%, about 210%, about 220%, about 230%, about 240%, about 250%, about 260%, about 270%, about 280%, about 290%, or about 300%, or more, compared to prior to treatment.
In some embodiments, the Scale of Social Responsibility (SSR) is utilized to evaluate the safety and/or efficacy of psilocybin. The SSR measures perceptions regarding the importance of ethics and social responsibility.
The Pictorial Empathy Test (PET), Reading the Mind in the Eyes Test (RMET), Scale of Social Responsibility (SSR), Social Value Orientation (SVO), and Toronto Empathy Questionnaire (TEQ) were performed. Table 28 summarizes the results of the mixed model for repeated measures (MMRM) analysis for each of the aforementioned social cognition panel scales measured on Day 7 and Day 84 after study drug administration.

CN(C)CCc1c[nH]c2cccc(OP(=O)(O)O)c12 [Psilocybin, psilocybin]
PET change from baseline, LS mean difference Psilocybin 10 mg-Placebo (Day 7): −0.1 | PET change from baseline, LS mean difference Psilocybin 25mg-10mg (Day 7): 0.3 | PET change from baseline, LS mean difference Psilocybin 25 mg-Placebo (Day 7): 0.2 | RMET change from baseline, LS mean difference Psilocybin 10 mg-Placebo (Day 7): 0.1 | RMET change from baseline, LS mean difference Psilocybin 25mg-10mg (Day 7): 0.0 | RMET change from baseline, LS mean difference Psilocybin 25 mg-Placebo (Day 7): 0.2 | SSR compliance social rules change from baseline, LS mean difference Psilocybin 10 mg-Placebo (Day 7): 0.0 | SSR compliance social rules change from baseline, LS mean difference Psilocybin 25mg-10mg (Day 7): 0.1 | SSR compliance social rules change from baseline, LS mean difference Psilocybin 25 mg-Placebo (Day 7): 0.1 | SSR fulfilling expectations change from baseline, LS mean difference Psilocybin 10 mg-Placebo (Day 7): 0.1 | SSR fulfilling expectations change from baseline, LS mean difference Psilocybin 25mg-10mg (Day 7): 0.1 | SSR fulfilling expectations change from baseline, LS mean difference Psilocybin 25 mg-Placebo (Day 7): 0.2 | SSR global change from baseline, LS mean difference Psilocybin 10 mg-Placebo (Day 7): 1.2 | SSR global change from baseline, LS mean difference Psilocybin 25mg-10mg (Day 7): 1.6 | SSR global change from baseline, LS mean difference Psilocybin 25 mg-Placebo (Day 7): 2.8 | SVO angle change from baseline, LS mean difference Psilocybin 10 mg-Placebo (Day 7): 3.4 | SVO angle change from baseline, LS mean difference Psilocybin 25mg-10mg (Day 7): −1.3 | SVO angle change from baseline, LS mean difference Psilocybin 25 mg-Placebo (Day 7): 2.1 | SVO type change from baseline, LS mean difference Psilocybin 10 mg-Placebo (Day 7): 0.1 | SVO type change from baseline, LS mean difference Psilocybin 25mg-10mg (Day 7): −0.0 | SVO type change from baseline, LS mean difference Psilocybin 25 mg-Placebo (Day 7): 0.1 | TEQ change from baseline, LS mean difference Psilocybin 10 mg-Placebo (Day 7): 0.1 | TEQ change from baseline, LS mean difference Psilocybin 25mg-10mg (Day 7): 0.1 | TEQ change from baseline, LS mean difference Psilocybin 25 mg-Placebo (Day 7): 0.2 | PET change from baseline, LS mean difference Psilocybin 10 mg-Placebo (Day 84): −0.1 | PET change from baseline, LS mean difference Psilocybin 25mg-10mg (Day 84): 0.3 | PET change from baseline, LS mean difference Psilocybin 25 mg-Placebo (Day 84): 0.1 | RMET change from baseline, LS mean difference Psilocybin 10 mg-Placebo (Day 84): 0.2 | RMET change from baseline, LS mean difference Psilocybin 25mg-10mg (Day 84): 0.3 | RMET change from baseline, LS mean difference Psilocybin 25 mg-Placebo (Day 84): 0.5 | SSR compliance social rules change from baseline, LS mean difference Psilocybin 10 mg-Placebo (Day 84): −0.0 | SSR compliance social rules change from baseline, LS mean difference Psilocybin 25mg-10mg (Day 84): 0.1 | SSR compliance social rules change from baseline, LS mean difference Psilocybin 25 mg-Placebo (Day 84): 0.1 | SSR fulfilling expectations change from baseline, LS mean difference Psilocybin 10 mg-Placebo (Day 84): −0.1 | SSR fulfilling expectations change from baseline, LS mean difference Psilocybin 25mg-10mg (Day 84): 0.2 | SSR fulfilling expectations change from baseline, LS mean difference Psilocybin 25 mg-Placebo (Day 84): 0.0 | SSR global change from baseline, LS mean difference Psilocybin 10 mg-Placebo (Day 84): 0.3 | SSR global change from baseline, LS mean difference Psilocybin 25mg-10mg (Day 84): 1.8 | SSR global change from baseline, LS mean difference Psilocybin 25 mg-Placebo (Day 84): 2.2 | SVO angle change from baseline, LS mean difference Psilocybin 10 mg-Placebo (Day 84): 3.4 | SVO angle change from baseline, LS mean difference Psilocybin 25mg-10mg (Day 84): −1.0 | SVO angle change from baseline, LS mean difference Psilocybin 25 mg-Placebo (Day 84): 2.4 | SVO type change from baseline, LS mean difference Psilocybin 10 mg-Placebo (Day 84): 0.1 | SVO type change from baseline, LS mean difference Psilocybin 25mg-10mg (Day 84): −0.0 | SVO type change from baseline, LS mean difference Psilocybin 25 mg-Placebo (Day 84): 0.1 | TEQ change from baseline, LS mean difference Psilocybin 10 mg-Placebo (Day 84): 0.1 | TEQ change from baseline, LS mean difference Psilocybin 25mg-10mg (Day 84): 0.0 | TEQ change from baseline, LS mean difference Psilocybin 25 mg-Placebo (Day 84): 0.1 | SSR fulfilling expectations change from baseline, LS mean (Psilocybin 10 mg, Day 7): −0.1 | SSR fulfilling expectations change from baseline, LS mean (Psilocybin 10 mg, Day 84): −0.2 | TEQ change from baseline, LS mean (Psilocybin 10 mg, Day 84): −0.1 | SSR fulfilling expectations change from baseline, LS mean (Psilocybin 25 mg, Day 7): −0.0 | SSR fulfilling expectations change from baseline, LS mean (Psilocybin 25 mg, Day 84): −0.0 | TEQ change from baseline, LS mean (Psilocybin 25 mg, Day 84): −0.0

From patent publication US12377112B2, “Methods of treating neurocognitive disorders, chronic pain and reducing inflammation” (priority 2019, dated 2025)
